Laboratory results as given in ChEMBL document CHEMBL1152592, “Design, synthesis and biological evaluations of novel 7-[3-(1-aminocycloalkyl)pyrrolidin-1-yl]-6-desfluoro-8-methoxyquinolones with potent antibacterial activity against multi-drug resistant Gram-positive bacteria” (Bioorg Med Chem, 2009).
Values after ≈ are worked out from the molar mass of the structure shown.

Columns and labels:
[1] = tested on: Escherichia coli; assay: Antibacterial activity against Escherichia coli NIHJ after 18 hrs by twofold microbroth dilution method; assay type: functional
[2] = tested on: Staphylococcus aureus; assay: Antibacterial activity against Staphylococcus aureus FDA 209-P after 18 hrs by twofold microbroth dilution method; assay type: functional
[3] = tested on: Streptococcus pyogenes; assay: Antibacterial activity against Streptococcus pyogenes G-36 after 18 hrs by twofold microbroth dilution method; assay type: functional; conditions: G-36, 18 h
[4] = tested on: Mus musculus; assay: Toxicity in Slc:ddY mouse at 50 mg/kg, iv; assay type: organism-based; design: dose 50 mg/kg, route intravenous; conditions: in vivo
[5] = tested on: Mus musculus; assay: Toxicity in Slc:ddY mouse assessed as micronucleated reticulocyte in blood at 50 mg/kg, iv after 48 hrs of treatment by fluorescence microscopy; assay type: organism-based; design: dose 50 mg/kg, route intravenous; conditions: in vivo
[6] = tested on: Enterococcus faecalis; assay: Antibacterial activity against Enterococcus faecalis ATCC 19433 after 18 hrs by twofold microbroth dilution method; assay type: functional; conditions: ATCC19433, 18 h
[7] = tested on: Klebsiella pneumoniae; assay: Antibacterial activity against Klebsiella pneumoniae type 2 after 18 hrs by twofold microbroth dilution method; assay type: functional; conditions: type 2, 18 h
[8] = tested on: Mus musculus; assay: Toxicity in Slc:ddY mouse at 150 mg/kg, iv; assay type: organism-based; design: dose 150 mg/kg, route intravenous; conditions: in vivo
[9] = tested on: Streptococcus mitis; assay: Antibacterial activity against Streptococcus mitis IID685 after 18 hrs by twofold microbroth dilution method; assay type: functional; conditions: IID685, 18 h
[10] = tested on: Pseudomonas aeruginosa; assay: Antibacterial activity against Pseudomonas aeruginosa PAO1 after 18 hrs by twofold microbroth dilution method; assay type: functional; conditions: PAO1, 18 h
[11] = Aqueous […] of the compound; assay type: physicochemical; conditions: aqueous (not further specified)
[12] = tested on: Staphylococcus aureus; assay: Antibacterial activity against levofloxacin, methicillin-resistant Staphylococcus aureus after 18 hrs by twofold microbroth dilution method; assay type: functional
[13] = tested on: Streptococcus pneumoniae; assay: Antibacterial activity against Streptococcus pneumoniae J-24 after 18 hrs by twofold microbroth dilution method; assay type: functional; conditions: J-24, 18 h
[14] = tested on: Mus musculus; assay: Toxicity in Slc:ddY mouse at 100 mg/kg, iv; assay type: organism-based; design: dose 100 mg/kg, route intravenous; conditions: in vivo
[15] = tested on: Staphylococcus epidermidis; assay: Antibacterial activity against Staphylococcus epidermidis 56500 after 18 hrs by twofold microbroth dilution method; assay type: functional; conditions: Staphylococcus epidermidis, 56500, 18 h
[16] = tested on: Staphylococcus aureus; assay: Antibacterial activity against ciprofloxacin, methicillin-resistant Staphylococcus aureus after 18 hrs by twofold microbroth dilution method; assay type: functional
[17] = tested on: Streptococcus pneumoniae; assay: Antibacterial activity against penicillin-intermediate resistant Streptococcus pneumoniae after 18 hrs by twofold microbroth dilution method; assay type: functional
[18] = Ratio of AUC (0 to 6 hrs) liver to serum in Crj:CD rat […] at 20 mg/kg, iv; assay type: ADME, organism-based; design: dose 20 mg/kg, route intravenous
[19] = Cmax in cynomolgus monkey serum at 20 mg/kg, iv; assay type: ADME, organism-based, Macaca fascicularis; design: dose 20 mg/kg, route intravenous
[20] = Half life in cynomolgus monkey serum at 20 mg/kg, iv; assay type: ADME, organism-based, Macaca fascicularis; design: dose 20 mg/kg, route intravenous
[21] = AUC (0 to 6 hrs) in cynomolgus monkey serum at 20 mg/kg, po; assay type: ADME, organism-based, Macaca fascicularis, Plasma; design: time < 6 hr, dose 20 mg/kg, route oral
[22] = tested on: Enterococcus faecium; assay: Antibacterial activity against vancomycin-resistant Enterococcus faecium after 18 hrs by twofold microbroth dilution method; assay type: functional
[23] = biological target: DNA gyrase subunit A (Staphylococcus aureus, UniProt P20831, S84L); assay: Inhibition of Staphylococcus aureus DNA gyrase Ser84Leu mutant
[24] = Cmin in Crj:CD rat serum at 20 mg/kg, iv after 5 mins; assay type: ADME, organism-based; design: dose 20 mg/kg, route intravenous; conditions: read-out: Cmin
[25] = AUC (0 to 6 hrs) in Crj:CD rat lung at 20 mg/kg, iv; assay type: ADME, organism-based; design: time < 6 hr, dose 20 mg/kg, route intravenous
[26] = Half life in Crj:CD rat kidney at 20 mg/kg, iv; assay type: ADME, organism-based; design: dose 20 mg/kg, route intravenous
[27] = Oral bioavailability in Crj:CD rat serum at 20 mg/kg; assay type: ADME, organism-based
[28] = Half life in Crj:CD rat liver at 20 mg/kg, iv; assay type: ADME, organism-based; design: dose 20 mg/kg, route intravenous
[29] = AUC (0 to 6 hrs) in Crj:CD rat kidney at 20 mg/kg, iv; assay type: ADME, organism-based; design: time < 6 hr, dose 20 mg/kg, route intravenous
[30] = Inhibition of Staphylococcus aureus DNA topoisomerase 4 Ser80Phe mutant
[31] = Cmin in Crj:CD rat kidney at 20 mg/kg, iv after 5 mins; assay type: ADME, organism-based; design: dose 20 mg/kg, route intravenous; conditions: read-out: Cmin
[32] = Half life in cynomolgus monkey serum at 20 mg/kg, po; assay type: ADME, organism-based, Macaca fascicularis; design: dose 20 mg/kg, route oral
[33] = Cmin in Crj:CD rat lung at 20 mg/kg, iv after 5 mins; assay type: ADME, organism-based; design: dose 20 mg/kg, route intravenous; conditions: read-out: Cmin
[34] = tested on: Staphylococcus aureus; assay: Selectivity ratio of IC50 for Staphylococcus aureus DNA topoisomerase 4 Ser80Phe mutant to IC50 for Staphylococcus aureus wild type DNA topoisomerase 4
[35] = AUC (0 to 6 hrs) in cynomolgus monkey serum at 20 mg/kg, iv; assay type: ADME, organism-based, Macaca fascicularis, Plasma; design: time < 6 hr, dose 20 mg/kg, route intravenous
[36] = Ratio of AUC (0 to 6 hrs) lung to serum in Crj:CD rat lung at 20 mg/kg, iv; assay type: ADME, organism-based; design: dose 20 mg/kg, route intravenous
[37] = biological target: DNA gyrase (Staphylococcus aureus, UniProt P0A0K8+P20831); assay: Inhibition of Staphylococcus aureus wild type DNA gyrase; assay type: protein-complex assay
[38] = Cmax in Crj:CD rat serum at 20 mg/kg, po; assay type: ADME, organism-based; design: dose 20 mg/kg, route oral
[39] = Oral bioavailability in cynomolgus monkey serum at 20 mg/kg; assay type: ADME, organism-based, Macaca fascicularis
[40] = Ratio of AUC (0 to 6 hrs) kidney to serum in Crj:CD rat […] at 20 mg/kg, iv; assay type: ADME, organism-based; design: dose 20 mg/kg, route intravenous
[41] = AUC (0 to 6hrs) in Crj:CD rat serum at 20 mg/kg, po; assay type: ADME, organism-based; design: time < 6 hr, dose 20 mg/kg, route oral
[42] = Half life in Crj:CD rat serum at 20 mg/kg, iv; assay type: ADME, organism-based; design: dose 20 mg/kg, route intravenous
[43] = tested on: Staphylococcus aureus; assay: Selectivity ratio of IC50 for Staphylococcus aureus DNA gyrase Ser84Leu mutant to IC50 for Staphylococcus aureus wild type DNA gyrase
[44] = Cmin in Crj:CD rat liver at 20 mg/kg, iv after 5 mins; assay type: ADME, organism-based; design: dose 20 mg/kg, route intravenous; conditions: read-out: Cmin
[45] = AUC (0 to 6 hrs) in Crj:CD rat serum at 20 mg/kg, iv; assay type: ADME, organism-based; design: time < 6 hr, dose 20 mg/kg, route intravenous
[46] = AUC (0 to 6 hrs) in Crj:CD rat liver at 20 mg/kg, iv; assay type: ADME, organism-based; design: time < 6 hr, dose 20 mg/kg, route intravenous
[47] = tested on: Enterococcus faecalis; assay: Antibacterial activity against vancomycin-resistant Enterococcus faecalis after 18 hrs by twofold microbroth dilution method; assay type: functional
[48] = Inhibition of Staphylococcus aureus wild type DNA topoisomerase 4
[49] = Cmax in cynomolgus monkey serum at 20 mg/kg, po; assay type: ADME, organism-based, Macaca fascicularis; design: dose 20 mg/kg, route oral
[50] = Half life in Crj:CD rat serum at 20 mg/kg, po; assay type: ADME, organism-based; design: dose 20 mg/kg, route oral
[51] = tested on: Mus musculus; assay: Toxicity in Slc:ddY mouse assessed as micronucleated reticulocyte in blood at 150 mg/kg, iv after 48 hrs of treatment by fluorescence microscopy; assay type: organism-based; design: dose 150 mg/kg, route intravenous; conditions: in vivo
[52] = Half life in Crj:CD rat lung at 20 mg/kg, iv; assay type: ADME, organism-based; design: dose 20 mg/kg, route intravenous

## COc1c(N2CC[C@@H]([C@H](C)N)C2)ccc2c(=O)c(C(=O)O)cn(C3CC3)c12
[1]
  MIC: 0.012 µg/mL (≈ 0.0323 µM)
[2]
  MIC: ≤ 0.003 µg/mL
[3]
  MIC: 0.012 µg/mL (≈ 0.0323 µM)
[4]
  Activity: Non-toxic
[5]
  Activity: Toxic
[6]
  MIC: 0.05 µg/mL (≈ 0.135 µM)
[7]
  MIC: 0.1 µg/mL (≈ 0.269 µM)
[8]
  Activity: Toxic
[9]
  MIC: 0.006 µg/mL (≈ 0.0162 µM)
[10]
  MIC: 0.2 µg/mL (≈ 0.538 µM)
[11]
  solubility: > 10000 µg/mL
[12]
  MIC50: 0.5 µg/mL (≈ 1.35 µM)
  MIC80: 8 µg/mL (≈ 21.5 µM)
  MIC90: 8 µg/mL (≈ 21.5 µM)
[13]
  MIC: ≤ 0.003 µg/mL
[14]
  Activity: Toxic
[15]
  MIC: 0.006 µg/mL (≈ 0.0162 µM)

## COc1c(N2CC[C@@H](C3(N)CC3)C2)ccc2c(=O)c(C(=O)O)cn([C@@H]3C[C@@H]3F)c12
[16]
  MIC50: 0.06 µg/mL (≈ 0.149 µM)
  MIC90: 0.5 µg/mL (≈ 1.25 µM)
[17]
  MIC50: 0.03 µg/mL (≈ 0.0747 µM)
  MIC90: 0.03 µg/mL (≈ 0.0747 µM)
[1]
  MIC: ≤ 0.003 µg/mL
[18]
  Kp: 4.6
[19]
  Cmax: 12300 ng/mL
[2]
  MIC: ≤ 0.003 µg/mL
[3]
  MIC: 0.006 µg/mL (≈ 0.0149 µM)
[20]
  half-life: 4.4 h
[21]
  AUC(0-t) at 6 h: 37500 ng·h/mL
[22]
  MIC50: 0.25 µg/mL (≈ 0.623 µM)
  MIC90: 2 µg/mL (≈ 4.98 µM)
[23]
  IC50: 19.5 µM
[24]
  concentration at 5 min: 11000 ng/mL
[25]
  AUC(0-t) at 6 h: 45500 ng·h/mL
[26]
  half-life: 1.4 h
[27]
  bioavailability: 67.4%
[28]
  half-life: 1.1 h
[29]
  AUC(0-t) at 6 h: 64400 ng·h/mL
[30]
  IC50: 1.76 µg/mL (≈ 4.38 µM)
[31]
  concentration at 5 min: 47200 ng/mL
[32]
  half-life: 6 h
[33]
  concentration at 5 min: 32400 ng/mL
[6]
  MIC: 0.025 µg/mL (≈ 0.0623 µM)
[34]
  Ratio IC50: 5.7
[35]
  AUC(0-t) at 6 h: 64400 ng·h/mL
[36]
  Kp: 3.1
[7]
  MIC: 0.05 µg/mL (≈ 0.125 µM)
[37]
  IC50: 2.08 µM
[38]
  Cmax: 6700 ng/mL
[39]
  bioavailability: 58.2%
[40]
  Kp: 4.4
[9]
  MIC: 0.003 µg/mL (≈ 0.00747 µM)
[41]
  AUC(0-t) at 6 h: 9800 ng·h/mL
[10]
  MIC: 0.39 µg/mL (≈ 0.972 µM)
[11]
  solubility: 480 µg/mL (≈ 1200 µM)
[42]
  half-life: 1.2 h
[12]
  MIC50: 0.12 µg/mL (≈ 0.299 µM)
  MIC80: 1 µg/mL (≈ 2.49 µM)
  MIC90: 1 µg/mL (≈ 2.49 µM)
[43]
  Ratio IC50: 9.35
[44]
  concentration at 5 min: 48500 ng/mL
[45]
  AUC(0-t) at 6 h: 14500 ng·h/mL
[46]
  AUC(0-t) at 6 h: 66100 ng·h/mL
[13]
  MIC: 0.006 µg/mL (≈ 0.0149 µM)
[47]
  MIC50: 0.25 µg/mL (≈ 0.623 µM)
  MIC90: 0.5 µg/mL (≈ 1.25 µM)
[48]
  IC50: 0.309 µg/mL (≈ 0.77 µM)
[49]
  Cmax: 3700 ng/mL
[14]
  Activity: Non-toxic
[50]
  half-life: 1.3 h
[51]
  Activity: Toxic
[52]
  half-life: 1.2 h
[15]
  MIC: 0.006 µg/mL (≈ 0.0149 µM)
